From patent US11541055B2, “Inhibitors of human immunodeficiency virus replication” (ViiV Healthcare UK (No. 5) LIMITED, priority 2018, dated 2023)

How the values were obtained:
[1] = tested on: recombinant NL4-3 virus (Renilla luciferase) in MT-2 cells; assay: HIV cell culture assay (antiviral activity, luciferase readout); type: cell-based; conditions: Renilla, NL43
Method in brief: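 MT-2 cells were infected with recombinant NL4-3 virus carrying Renilla luciferase in place of part of nef. Cells were cultured 4–5 days with serially diluted compound, and luciferase was measured with a live-cell substrate. EC50 was calculated from the median effect equation.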

[2] = Compound cytotoxicity, XTT-based colorimetric assay; type: cell-based; conditions: human; uninfected MT2 cells, day 4, XTT
Method in brief: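 Run under the antiviral-assay protocol but without virus. Viability was read on day 4 and CC50 values were derived from the readout.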

Row | SMILES | EC50 [1] [pM] | CC50 at 4 days [2] [pM]
1 | CN(c1cccc(-c2ccc3c(=O)n(-c4ccc(Cl)c5c(NS(C)(=O)=O)nn(C)c45)c([C@H](Cc4cc(F)cc(F)c4)NC(=O)Cn4nc(C(F)F)c5c4C(F)(F)[C@@H]4C[C@H]54)nc3c2)c1)S(C)(=O)=O [Example 28, N—((S)-1-((3P)-3-(4-chloro-1-methyl-3-(methylsulfonamido)-1H-indazol-7-yl)-7-(3-(N-methylmethylsulfonamido)phenyl)-4-oxo-3,4-dihydroquinazolin-2-yl)-2-(3,5-difluorophenyl)ethyl)-2-((3bS,4aR)-3-(difluoromethyl)-5,5-difluoro-3b,4,4a,5-tetrahydro-1H-cyclopropa[3,4]cyclopenta[1,2-c]pyrazol-1-yl)acetamide] | 220 | > 500000
2 | Cc1cc(-c2ccc3c(=O)n(-c4ccc(Cl)c5c(NS(=O)(=O)C6CC6)nn(CC(F)F)c45)c([C@H](Cc4cc(F)cc(F)c4)NC(=O)Cn4nc(C(F)F)c5c4C(F)(F)[C@@H]4C[C@H]54)nc3c2)nc(C)n1 (atropisomer, axis not shown; (P)) [Example 85, N—((S)-1-((3P)-3-(4-chloro-3-(cyclopropanesulfonamido)-1-(2,2-difluoroethyl)-1H-indazol-7-yl)-7-(2,6-dimethylpyrimidin-4-yl)-4-oxo-3,4-dihydroquinazolin-2-yl)-2-(3,5-difluorophenyl)ethyl)-2-((3bS,4aR)-3-(difluoromethyl)-5,5-difluoro-3b,4,4a,5-tetrahydro-1H-cyclopropa[3,4]cyclopenta[1,2-c]pyrazol-1-yl)acetamide] | 88 | > 500000
3 | COc1nccnc1-c1ccc2c(=O)n(-c3ccc(Cl)c4c(NS(C)(=O)=O)nn(C)c34)c([C@H](Cc3cc(F)cc(F)c3)NC(=O)Cn3nc(C(F)F)c4c3C(F)(F)[C@@H]3C[C@H]43)nc2c1 (atropisomer, axis not shown; (P)) [Example 15, N—((S)-1-((3P)-3-(4-chloro-1-methyl-3-(methylsulfonamido)-1H-indazol-7-yl)-7-(3-methoxypyrazin-2-yl)-4-oxo-3,4-dihydroquinazolin-2-yl)-2-(3,5-difluorophenyl)ethyl)-2-((3bS,4aR)-3-(difluoromethyl)-5,5-difluoro-3b,4,4a,5-tetrahydro-1H-cyclopropa[3,4]cyclopenta[1,2-c]pyrazol-1-yl)acetamide] | 150 | > 500000
4 | Cc1cc(-c2ccc3c(=O)n(-c4ccc(Cl)c5c(NS(C)(=O)=O)nn(CC(F)(F)F)c45)c([C@H](Cc4cc(F)cc(F)c4)NC(=O)Cn4nc(C(F)F)c5c4C(F)(F)[C@@H]4C[C@H]54)nc3c2)nc(C)n1 (atropisomer, axis not shown) [Example 103, N-[(1S)-1-{3-[4-chloro-3-methanesulfonamido-1-(2,2,2-trifluoroethyl)-1H-indazol-7-yl]-7-(2,6-dimethylpyrimidin-4-yl)-4-oxo-3,4-dihydroquinazolin-2-yl}-2-(3,5-difluorophenyl)ethyl]-2-[(2S,4R)-9-(difluoromethyl)-5,5-difluoro-7,8-diazatricyclo[4.3.0.0^2,^4]nona-1(6),8-dien-7-yl]acetamide] | 59 | > 500000
5 | COc1cc(C)nc(-c2ccc3c(=O)n(-c4ccc(Cl)c5c(NS(C)(=O)=O)nn(C)c45)c([C@H](Cc4cc(F)cc(F)c4)NC(=O)Cn4nc(C(F)F)c5c4C(F)(F)[C@@H]4C[C@H]54)nc3c2)c1 (atropisomer, axis not shown; (P)) [Example 57, N—((S)-1-((3P)-3-(4-chloro-1-methyl-3-(methylsulfonamido)-1H-indazol-7-yl)-7-(4-methoxy-6-methylpyridin-2-yl)-4-oxo-3,4-dihydroquinazolin-2-yl)-2-(3,5-difluorophenyl)ethyl)-2-((3bS,4aR)-3-(difluoromethyl)-5,5-difluoro-3b,4,4a,5-tetrahydro-1H-cyclopropa[3,4]cyclopenta[1,2-c]pyrazol-1-yl)acetamide] | 150 | > 500000
6 | CS(=O)(=O)Nc1nn(CC(F)(F)F)c2c(-n3c([C@H](Cc4cc(F)cc(F)c4)NC(=O)Cn4nc(C(F)F)c5c4C(F)(F)[C@@H]4C[C@H]54)nc4cc(-c5ncccc5S(C)(=O)=O)ccc4c3=O)ccc(Cl)c12 (atropisomer, axis not shown) [Example 112] | 75 | > 500000
7 | Cc1nccc(-c2ccc3c(=O)n(-c4ccc(Cl)c5c(NS(C)(=O)=O)nn(C)c45)c([C@H](Cc4cc(F)cc(F)c4)NC(=O)Cn4nc(C(F)F)c5c4C(F)(F)[C@@H]4C[C@H]54)nc3c2)n1 [Example 10, N—((S)-1-((3P)-3-(4-chloro-1-methyl-3-(methylsulfonamido)-1H-indazol-7-yl)-7-(2-methylpyrimidin-4-yl)-4-oxo-3,4-dihydroquinazolin-2-yl)-2-(3,5-difluorophenyl)ethyl)-2-((3bS,4aR)-3-(difluoromethyl)-5,5-difluoro-3b,4,4a,5-tetrahydro-1H-cyclopropa[3,4]cyclopenta[1,2-c]pyrazol-1-yl)acetamide] | 42 | > 500000
8 | CCc1cc(-c2ccc3c(=O)n(-c4ccc(Cl)c5c(NS(C)(=O)=O)nn(C)c45)c([C@H](Cc4cc(F)cc(F)c4)NC(=O)Cn4nc(C(F)F)c5c4C(F)(F)[C@@H]4C[C@H]54)nc3c2)nc(CC)n1 (atropisomer, axis not shown; (P)) [Example 68, N—((S)-1-((3P)-3-(4-chloro-1-methyl-3-(methylsulfonamido)-1H-indazol-7-yl)-7-(2,6-diethylpyrimidin-4-yl)-4-oxo-3,4-dihydroquinazolin-2-yl)-2-(3,5-difluorophenyl)ethyl)-2-((3bS,4aR)-3-(difluoromethyl)-5,5-difluoro-3b,4,4a,5-tetrahydro-1H-cyclopropa[3,4]cyclopenta[1,2-c]pyrazol-1-yl)acetamide] | 180 | > 500000
9 | Cc1ncc(F)c(-c2ccc3c(=O)n(-c4ccc(Cl)c5c(NS(C)(=O)=O)nn(C)c45)c([C@H](Cc4cc(F)cc(F)c4)NC(=O)Cn4nc(C(F)F)c5c4C(F)(F)[C@@H]4C[C@H]54)nc3c2)n1 (atropisomer, axis not shown; (P)) [Example 64, N—((S)-1-((3P)-3-(4-chloro-1-methyl-3-(methylsulfonamido)-1H-indazol-7-yl)-7-(5-fluoro-2-methylpyrimidin-4-yl)-4-oxo-3,4-dihydroquinazolin-2-yl)-2-(3,5-difluorophenyl)ethyl)-2-((3bS,4aR)-3-(difluoromethyl)-5,5-difluoro-3b,4,4a,5-tetrahydro-1H-cyclopropa[3,4]cyclopenta[1,2-c]pyrazol-1-yl)acetamide] | 93 | > 500000
10 | Cc1nc(C)c(F)c(-c2ccc3c(=O)n(-c4ccc(Cl)c5c(NS(C)(=O)=O)nn(C)c45)c([C@H](Cc4cc(F)cc(F)c4)NC(=O)Cn4nc(C(F)F)c5c4C(F)(F)[C@@H]4C[C@H]54)nc3c2)n1 (atropisomer, axis not shown) [Example 119, N-[(1S)-1-[3-(4-chloro-3-methanesulfonamido-1-methyl-1H-indazol-7-yl)-7-(5-fluoro-2,6-dimethylpyrimidin-4-yl)-4-oxo-3,4-dihydroquinazolin-2-yl]-2-(3,5-difluorophenyl)ethyl]-2-[(2S,4R)-9-(difluoromethyl)-5,5-difluoro-7,8-diazatricyclo[4.3.0.0^2,^4]nona-1(6),8-dien-7-yl]acetamide] | 87 | > 500000
11 | Cc1nc(-c2ccc3c(=O)n(-c4ccc(Cl)c5c(NS(C)(=O)=O)nn(C)c45)c([C@H](Cc4cc(F)cc(F)c4)NC(=O)Cn4nc(C(F)F)c5c4C(F)(F)[C@@H]4C[C@H]54)nc3c2)cc(C(C)C)n1 (atropisomer, axis not shown; (P)) [Example 66, N—((S)-1-((3P)-3-(4-chloro-1-methyl-3-(methylsulfonamido)-1H-indazol-7-yl)-7-(6-isopropyl-2-methylpyrimidin-4-yl)-4-oxo-3,4-dihydroquinazolin-2-yl)-2-(3,5-difluorophenyl)ethyl)-2-((3bS,4aR)-3-(difluoromethyl)-5,5-difluoro-3b,4,4a,5-tetrahydro-1H-cyclopropa[3,4]cyclopenta[1,2-c]pyrazol-1-yl)acetamide] | 150 | > 500000
12 | Cc1cc(-c2ccc3c(=O)n(-c4ccc(Cl)c5c(NS(C)(=O)=O)nn(CC(F)F)c45)c([C@H](Cc4cc(F)cc(F)c4)NC(=O)Cn4nc(C(F)F)c5c4C(F)(F)[C@@H]4C[C@H]54)nc3c2)nc(C)n1 (atropisomer, axis not shown) [Example 131, N-[(1S)-1-{3-[4-chloro-1-(2,2-difluoroethyl)-3-methanesulfonamido-1H-indazol-7-yl]-7-(2,6-dimethylpyrimidin-4-y1)-4-oxo-3,4-dihydroquinazolin-2-y1}-2-(3,5-difluorophenyl)ethyl]-2-[(2S,4R)-9-(difluoromethyl)-5,5-difluoro-7,8-diazatricyclo[4.3.0.0^2,^4]nona-1(6),8-dien-7-yl]acetamide] | 38 | > 500000
13 | Cc1nnc(-c2ccc3c(=O)n(-c4ccc(Cl)c5c(NS(C)(=O)=O)nn(CC(F)F)c45)c([C@H](Cc4cc(F)cc(F)c4)NC(=O)Cn4nc(C(F)F)c5c4C(F)(F)[C@@H]4C[C@H]54)nc3c2)nc1C (atropisomer, axis not shown) [Example 133, N-[(1S)-1-{3-[4-chloro-1-(2,2-difluoroethyl)-3-methanesulfonamido-1H-indazol-7-yl]-7-(5,6-dimethyl-1,2,4-triazin-3-yl)-4-oxo-3,4-dihydroquinazolin-2-yl}-2-(3,5-difluorophenyl)ethyl]-2-[(2S,4R)-9-(difluoromethyl)-5,5-difluoro-7,8-diazatricyclo[4.3.0.0^2,^4]nona-1(6),8-dien-7-yl]acetamide] | 40 | > 500000
